Here are results for one molecule from US12161669B2, “Compositions and methods for cell targeting therapies” (UMC UTRECHT HOLDING B.V., priority 2017, dated 2024).

Holding throughout (assay type): cell-based
Assay [1] concerns RhoB. The assay is described as follows: Intracellular RhoB distribution in human dendritic cells. The following applies: human dendritic cells treated with ABP. On the procedure: For intracellular immunofluorescence staining of RhoB, cells were treated with pamidronate overnight (where indicated) and were allowed to attach onto coverslips precoated with poly-Llysine (Sigma-Aldrich). Cells were subsequently permeabilized with Permeabilizing solution 2 (BD), blocked with blocking serum (50% pooled normal human serum in PBS), and stained with a rabbit polyclonal anti-RhoB antibody (AbCam) followed by a secondary Goat anti-Rabbit IgG Alexa Fluor 488-conjugated antibody (Jackson ImmunoResearch). Cells were washed with blocking serum, fixed with 4% paraformaldehyde, stained with DAPI (where indicated), and mounted onto microscopy slides using Mowiol. Images were acquired using a Zeiss confocal laser scanning microscope LSM 700. Ratios between nuclear and extranuclear signal of RhoB was determined using Volocity software (PerkinElmer) or Image J software, where DAPI staining was used, when available, to mark nuclei.

Assay [2] has as its system RhoB. The assay is described as follows: Intracellular RhoB distribution by confocal microscopy in cell lines. As to conditions: cell lines (EBV-LCL 48).
Procedure: For intracellular immunofluorescence staining of RhoB, cells were treated with pamidronate overnight (where indicated) and were allowed to attach onto coverslips precoated with poly-Llysine (Sigma-Aldrich). […] Cells were washed with blocking serum, fixed with 4% paraformaldehyde, stained with DAPI (where indicated), and mounted onto microscopy slides using Mowiol. Images were acquired using a Zeiss confocal laser scanning microscope LSM 700. Ratios between nuclear and extranuclear signal of RhoB was determined using Volocity software (PerkinElmer) or Image J software, where DAPI staining was used, when available, to mark nuclei.
For assay [3], the system named is CD277. The assay is described as follows: Flow cytometry FRET of CD277 homodimerization in HEK 293 cells. The following applies: medium vs ABP. As for the experimental part: In order to determine homodimerization of CD277 molecules, cells were co-stained with equal amount of PE-conjugated anti-CD277 (donor) and […]680-conjugated anti-CD277 (acceptor) and samples were measured using a FACS Canto-II flow cytometer (BD). FRET efficiency was calculated with equations according to Sebestyen and colleagues (Sebestyen et al., 2002) where donor fluorescence was excited at 488 nm and detected at 576±26 nm, acceptor fluorescence was excited at 635 nm and detected at 780±60 nm, whereas FRET intensity was excited at 488 nm and detected at 780±60 nm. Correction factors for the spectral overlap between the different fluorescence channels were obtained from data measured on unlabeled and single-labeled cells.

In assay [4] the test system is HEK293FT tumor cells. The assay is described as follows: Tumor cell-T cell conjugate formation with HEK293FT cells (confocal). As to conditions: Jurma cells expressing γδTCRs, 100 μM PAM. On the procedure:
HEK293FT cells were seeded in μ-slide poly-L-lysine pre coated chamber (Ibidi) to adhere overnight. Next day cells were treated with 100 μM PAM for one hour at 37° C. TEGs were added onto HEK293FT cells and incubated at 37° C. for 30-120 minutes. After co-incubation chambers were immediately placed onto ice and fixed with 4% PFA for 30 minutes. Samples were blocked with 1% BSA/FCS and labeled with CD3ε-Alexa Fluor 647 (BD Biosciences) at 2 μg/mL for two hours at room temperature, and finally fixed with 1% PFA+DAPI. Samples were imaged with Zeiss LSM-710 and analyzed with Volocity software (PerkinElmer). In order to quantify the number of conjugates between HEK293FT and TEG cells we calculated the ratio between CD3c positive objects and DAPI positive objects on each image taken. To analyse gamma delta TCR enrichment into the immunological synapse, we calculated the ratio of CD3c signal enrichment inside the contact area versus outside of contact area of the target and effector cell on 63× magnified images. To further assess whether distinct functional avidity of γ9δ2TCRs when expressed in the TEG format is regulated by their ability to mediate binding of TEGs to tumor cell targets a more dynamic model was utilized. […] The number of tumor cell-T cell conjugates was assessed. […]

Each structure is given as a SMILES string.

Take `NCCC(O)(P(=O)(O)O)P(=O)(O)O` [pamidronate]: in assay [1], the “RhoB exclusion from the nucleus” value is given as “excluded from the nucleus in human”. Besides, the “Re-localization of RhoB from the nucleus or nuclear membrane to extranuclear sites” value in assay [2] was “induced”. For the same molecule, the “pairing of CD277 molecules (homodimer FRET)” value in assay [3] was “insensitive”. The “number of tumor cell-T cell conjugates, effect of PAM” value in assay [4] is “increased the number of conjugates”.
